Structures are written as SMILES.

Results on 32 compounds are retold here after patent publication US20110065706A1, “Therapeutic Agents 812” (AstraZeneca AB, priority 2009, published 2011).

The first test deals with T1, human GPR119 (Homo sapiens, UniProt Q8TDV5).
T1 construct: expressed in transfected cells; host or cells: HEK 293s
T1 sequence (Q8TDV5 1-335): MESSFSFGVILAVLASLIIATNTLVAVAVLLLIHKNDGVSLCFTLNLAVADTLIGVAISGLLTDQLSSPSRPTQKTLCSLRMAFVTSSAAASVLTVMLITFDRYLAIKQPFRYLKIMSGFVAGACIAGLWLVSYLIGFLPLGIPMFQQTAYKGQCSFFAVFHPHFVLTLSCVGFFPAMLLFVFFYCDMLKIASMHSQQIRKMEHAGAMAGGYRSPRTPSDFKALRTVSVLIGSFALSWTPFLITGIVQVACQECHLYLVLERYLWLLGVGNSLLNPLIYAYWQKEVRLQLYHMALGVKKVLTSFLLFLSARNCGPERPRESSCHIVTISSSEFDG
The test can be described thus: Cyclic AMP (HTRF cAMP) assay for human GPR119, Method A. It is filed as cell-based. The settings on record: HEK293S, 0.75 h; Method A; HEK 293s cells over-expressing human GPR119; percent effect at top concentration 30 μM relative to maximum (50 μM Oleoylethanolamide) and minimum (1% DMSO) controls.
Consider `CC(C)(C)OC(=O)N1CCN(c2ncc(OCc3ccc(S(C)(=O)=O)cc3F)cn2)CC1` [Example 36, tert-butyl 4-(5-(2-fluoro-4-(methylsulf-onyl)benzyl-oxy)pyrimi-din-2-yl)piperazine-1-carboxylate], for which the activation at 30 µM stood at 128%.

`CC(C)(C)OC(=O)N1CCN(c2ncc(OCc3ccc(S(C)(=O)=O)cc3)cn2)CC1` [Example 1, Tert-butyl 4-(5-(4-(methylsulfonyl)benzyloxy)pyrimidin-2-yl)piperazine-1-carboxylate]: the activation at 30 µM worked out at 83%.

For `CC1(OC(=O)N2CCN(c3ncc(OCc4ccncc4C#N)cn3)CC2)COC1` [Example 81, 3-methyloxetan-3-yl 4-(5-((3-cyanopyridin-4-yl)methoxy)pyrimi-din-2-yl)piperazine-1-carboxylate], the activation at 30 µM was 143%.

The compound `Cc1cc(COc2cnc(N3CCN(C(=O)OC(C)(C)C)CC3)nc2)ccc1NC(=O)C(C)C` [Example 12, tert-butyl 4-(5-(4-isobutyr-amido-3-methyl-benzyloxy)pyrimidin-2-yl)piperazine-1-carboxylate] gave an activation at 30 µM of 54%.

As for `Cc1cc(COc2cnc(N3CCN(C(=O)OC(C)(C)C)CC3)nc2)ccc1NC(=O)C(C)(C)C` [Example 13, tert-butyl 4-(5-(3-methyl-4-pivalamido-benzyloxy)pyrimidin-2-yl)piperazine-1-carboxylate], the activation at 30 µM came out at 41%.

Compound `CS(=O)(=O)c1ccc(COc2cnc(N3CCN(c4noc(C(F)(F)F)n4)CC3)nc2)cc1` [Example 88, 3-(4-(5-(4-(methylsulfonyl)bcnzyloxy)pyrimidin-2-yl)pipcrazin-1-yl)-5-(trifluoromcthyl)-1,2,4-oxadiazole] gave an activation at 30 µM of 79%.

As for `CS(=O)(=O)c1ccc(COc2cnc(N3CCN(C(=O)OC4COC4)CC3)nc2)cc1` [Example 75, Oxetan-3-yl 4-(5-(4-(methylsulfonyl)benzyloxy)pyrimidin-2-yl)piperazine-1-carboxylate], the activation at 30 µM turned out to be 31%.

`Cc1cc(COc2cnc(N3CCN(C(=O)OC(C)(C)C)CC3)nc2)ccc1C(=O)NC(C)(C)C` [Example 55, tert-butyl 4-(5-(4-(tert-butylcarbamoyl)-3-methylbenzyl-oxy)pyrimidin-2-yl)piperazine-1-carboxylate] returned an activation at 30 µM of 65%.

`CC(C)(C)OC(=O)N1CCN(c2ncc(OCc3ccc(NC(=O)C(C)(C)C)cc3)cn2)CC1` [Example 15, tert-butyl 4-(5-(4-pivalamido-benzyloxy)pyrimidin-2-yl)piperazine-1-carboxylate]: the activation at 30 µM was found to be 80%.

Compound `CNC(=O)c1ccc(COc2cnc(N3CCN(C(=O)OC(C)(C)C)CC3)nc2)cc1` [Example 45, tert-butyl 4-(5-(4-(methylcarba-moyl)benzyloxy)pyrimidin-2-yl)piperazine-1-carboxylate] returned an activation at 30 µM of 142%.

For the compound `C[C@@H]1CN(c2noc(C(F)(F)F)n2)CCN1c1ncc(OCc2ccc(S(C)(=O)=O)cc2)cn1` [Example 90, (R)-3-(3-methyl-4-(5-(4-(mcthylsulfonyl)bcnzyloxy)pyrimidin-2-yl)pipcrazin-1-yl)-5-(trifluoromcthyl)-1,2,4-oxadiazole], the activation at 30 µM was 75%.

Regarding `N#Cc1cnccc1COc1cnc(N2CCN(C(=O)OCC(F)(F)F)CC2)nc1` [Example 106, 2,2,2-trifluorocthyl 4-(5-((3-cyanopyridin-4-yl)mcthoxy)pyrimidin-2-yl)pipcrazinc-1-carboxylate], the activation at 30 µM was determined as 193%.

Regarding `CC(C)(C)OC(=O)N1CCN(c2ncc(OCc3ccc(S(C)(=O)=O)nc3)cn2)CC1` [Example 30, Tert-butyl 4-(5((6-(methylsulfonyl)pyridin-3-yl)methoxy)pyrimidin-2-yl)piperazine-1-carboxylate], the activation at 30 µM was 86%.

Regarding `CC(C)(C)OC(=O)N1CCN(c2ncc(OCc3ccc(S(C)(=O)=O)cn3)cn2)CC1` [Example 31, tert-butyl 4-(5-((5-(methylsulfonyl)pyridin-2-yl)methoxy)pyrimidin-2-yl)piperazine-1-carboxylate], the activation at 30 µM was determined as 86%.

For the compound `C[C@@H]1CN(C(=O)OC(C)(C)C#N)CCN1c1ncc(OCc2ccc(S(C)(=O)=O)cc2)cn1` [Example 71, (R)-2-cyanopropan-2-yl 3-methyl-4-(5-(4-(methylsulfonyl)benzyloxy)pyrimidin-2-yl)piperazine-1-carboxylate], the activation at 30 µM was 73%.

As to `C[C@@H]1CN(C(=O)OC2(C(F)(F)F)COC2)CCN1c1ncc(OCc2ccc(S(C)(=O)=O)cc2)cn1` [Example 110, (R)-3-(trifluoromethyl) oxetan-3-yl 3-mcthyl-4-(5-(4-(mcthylsulfonyl)benzyloxy)pyrimidin-2-yl)piperazine-1-carboxylate], the activation at 30 µM amounted to 55%.

As to `CC(C)c1nc(N2CCN(c3ncc(OCc4ccncc4C#N)cn3)CC2)no1` [Example 85, 4-((2-(4-(5-Isopropyl-1,2,4-oxadiazol-3-yl)piperazin-1-yl)pyrimidin-5-yloxy)methyl)nicotinonitrile], the activation at 30 µM is 167%.

The compound `CC(OC(=O)N1CCN(c2ncc(OCc3ccncc3C#N)cn2)CC1)C(F)(F)F` (stereo not shown) [Example 68, 1,1,1-trifluoropropan-2-yl 4-(5-((3-cyanopyridin-4-yl)methoxy)pyrim-idin-2-yl)piperazine-1-carboxylate] returned an activation at 30 µM of 169%.

Turning to `CC(C)(C)OC(=O)N1CCN(c2ncc(OCc3ccc(-n4cccn4)nc3)cn2)CC1` [Example 5, tert-butyl 4-(5-((6-(1H-pyrazol-1-yl)pyridin-3-yl)methoxy)pyrimidin-2-yl)piperazine-1-carboxylate], the activation at 30 µM amounted to 82%.

On to `CC(OC(=O)N1CCN(c2ncc(OCc3ccc(S(C)(=O)=O)cc3)cn2)CC1)C(F)(F)F` (stereo not shown) [Example 66, 1,1,1-Trifluoropropan-2-yl 4-(5-(4-(methylsulfonyl)benzyloxy)pyrimidin-2-yl)piperazine-1-carboxylate], for which the activation at 30 µM was found to be 56%.

In the case of `N#Cc1cnccc1COc1cnc(N2CCN(C(=O)OC3CCC3)CC2)nc1` [Example 65, cyclobutyl 4-(5-((3-cyanopyri-din-4-yl)methoxy)pyrimidin-2-yl)piperazine-1-carboxylate], the activation at 30 µM was 164%.

`CC(C)(C)OC(=O)N1CCN(c2ncc(OCc3ccc(C(=O)N4CCOCC4)cc3)cn2)CC1` [Example 53] registered an activation at 30 µM of 44%.

In turn, `CC(C)(C)OC(=O)N1CCN(c2ncc(OCc3ccc(S(=O)(=O)C4CC4)cc3)cn2)CC1` [Example 84, Tert-butyl 4-(5-(4-(cyclopropyl-sulfonyl)benzyloxy)pyrimidin-2-yl)pipcrazinc-1-carboxylate] registered an activation at 30 µM of 48%.

The compound `CC(C)(C#N)OC(=O)N1CCN(c2ncc(OCc3ccc(S(C)(=O)=O)cc3)cn2)CC1` [Example 70, 2-Cyanopropan-2-yl 4-(5-(4-(methylsulfonyl)benzyloxy)pyrimidin-2-yl)piperazine-1-carboxylate] displayed an activation at 30 µM of 28%.

Compound `CC(C)(C)OC(=O)N1CCN(c2ncc(OCc3ccc(-n4cncn4)cc3)cn2)CC1` [Example 2, tert-butyl 4-(5-(4-(1H-1,2,4-triazol-1-yl)benzyl-oxy)pyrimidin-2-yl)piperazine-1-carboxylate] yielded an activation at 30 µM of 131%.

In the case of `C[C@@H]1CN(C(=O)O[C@@H](C)C(F)(F)F)CCN1c1ncc(OCc2ccncc2C#N)cn1` [Example 104, (R)-((S)-1,1,1-trifluoropropan-2-yl)4-(5-((3-cyanopyridin-4-yl)methoxy)pyrimidin-2-yl)-3-mcthylpipcrazine-1-carboxylate], the activation at 30 µM is 315%.

For the compound `CN(CCO)C(=O)c1ccc(COc2cnc(N3CCN(C(=O)OC(C)(C)C)CC3)nc2)cc1` [Example 43, Tert-butyl 4-(5-(4-((2-hydroxyethyl)(methyl)carbamoyl)benzyloxy)pyrimidin-2-yl)piperazine-1-carboxylate], the activation at 30 µM stood at 48%.

Turning to `CNS(=O)(=O)c1ccc(COc2cnc(N3CCN(C(=O)OC(C)(C)C)CC3)nc2)cc1` [Example 16, tert-butyl 4-(5-(4-(N-methyl-sulfamoyl)benzyloxy)pyrimidin-2-yl)piperazine-1-carboxylate], the activation at 30 µM stood at 57%.

Still in this test, the particulars now being: Method A; HEK 293s cells over-expressing human GPR119; midpoint of dose response curve; selected examples.
`CC(C)(C)OC(=O)N1CCN(c2ncc(OCc3ccc(S(C)(=O)=O)cc3F)cn2)CC1` [Example 36, tert-butyl 4-(5-(2-fluoro-4-(methylsulf-onyl)benzyl-oxy)pyrimi-din-2-yl)piperazine-1-carboxylate] returned a 50% effective concentration (EC50) of 19 nM.

With `C[C@@H]1CN(c2noc(C(F)(F)F)n2)CCN1c1ncc(OCc2ccc(S(C)(=O)=O)cc2)cn1` [Example 90, (R)-3-(3-methyl-4-(5-(4-(mcthylsulfonyl)bcnzyloxy)pyrimidin-2-yl)pipcrazin-1-yl)-5-(trifluoromcthyl)-1,2,4-oxadiazole], the 50% effective concentration (EC50) came to 26 nM.

Staying with this test, now noted: human GPR119 cAMP assay; top concentration 30 μM.
As to `COc1cc(COc2cnc(N3CCN(C(=O)OC(C)(C)C)CC3)nc2)cc(OC)n1` [tert-butyl 4-[5-[(2,6-dimethoxy-4-pyridyl)methoxy]pyrimidin-2-yl]piperazine-1-carboxylate], the “significant activity at a top concentration of 30 μM” value (shortened to “significant activity”) was “did not show significant activity”.

Turning to `CS(=O)(=O)c1ccc(COc2cnc(N3CCN(C(=O)OC4CCOCC4)CC3)nc2)cc1` [tetrahydropyran-4-yl 4-[5-[(4-methylsulfonylphenyl)methoxy]pyrimidin-2-yl]piperazine-1-carboxylate], the “significant activity” value is on record as “did not show significant activity”.

With `N#Cc1cnccc1COc1cnc(N2CCN(C(=O)OC3CCOC3)CC2)nc1` (stereo not shown) [tetrahydrofuran-3-yl 4-[5-[(3-cyano-4-pyridyl)methoxy]pyrimidin-2-yl]piperazine-1-carboxylate], the “significant activity” value is “did not show significant activity”.

Take `CN1CCC(NC(=O)c2ccc(COc3cnc(N4CCN(C(=O)OC(C)(C)C)CC4)nc3)cc2)CC1` [tert-butyl 4-[5-[[4-[(1-methyl-4-piperidyl)carbamoyl]phenyl]methoxy]pyrimidin-2-yl]piperazine-1-carboxylate]: the “significant activity” value is recorded as “did not show significant activity”.
